Data on 1 compound can be found in patent US20240254162A1, “CYCLOTHEONELLAZOLEA, AND SYNTHETIC METHOD THEREFOR, AND APPLICATION METHOD THEREOF” (The Second People's Hospital of Shenzhen(Shenzhen Institute …, priority 2022, published 2024).

Holding throughout (type): biochemical
In one assay the target is T1, neutrophil elastase (NE) (Homo sapiens, UniProt P08246).
T1 construct: purchased Abcam ab118971
T1 sequence (P08246 30-267): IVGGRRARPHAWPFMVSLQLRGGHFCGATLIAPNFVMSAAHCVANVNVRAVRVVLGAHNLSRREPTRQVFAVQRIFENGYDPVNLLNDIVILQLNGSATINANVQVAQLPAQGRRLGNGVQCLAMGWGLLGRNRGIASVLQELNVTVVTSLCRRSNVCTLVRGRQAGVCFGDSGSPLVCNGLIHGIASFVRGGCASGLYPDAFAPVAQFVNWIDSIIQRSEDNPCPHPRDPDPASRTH
The assay is described as follows: Inhibition effect of CA on NE protease enzyme activity (Abcam NE protease detection kit ab118971, fluorescence). Particulars: incubated at 37° C. for 5 min; Ex/Em=400/505 nm; FIG. 3. The procedure:
• 1. Experimental materials include a NE protease detection kit (ab118971) of an Abcam company and CA. • 2. Experimental methods are as follows. In a black 96-well plate, a blank well group, a negative control well group and a sample well group are set, and a detection system is 100 μL. The blank well group is added with 75 μL of buffer, the negative control well group is added with 50 μL of NE protease and 25 μL of buffer, the sample well group is added with 50 μL of NE protease and 25 μL of CA solution (respectively with concentrations of 0.00001 μM, 0.0001 μM, 0.001 μM, 0.003 μM, 0.01 μM and 0.1 μM), and the three groups are incubated at a temperature of 37° C. for 5 min. Each well is added with 25 μL of substrate, after mixing evenly, fluorescence value of each well is immediately detected at Ex/Em=400/505 nm, every 20 seconds, and a dynamic process within a range of 0-40 min is observed. Two different time points (T1 and T2) are selected within a linear range of the dynamic process to obtain fluorescence values (RFUT1 and RFUT2) corresponding to the time points, a slope of the fluorescence values is calculated, and the slope can be regarded as an enzyme activity of each well. A formula of the slope is slope=(RFUT2−RFUT1)/(T2−T1). […] A half inhibitory concentration (IC50) is calculated through the Origin 2021 software. • 3.

Assay [1] addresses T2, mainprotease (Mpro) of SARS-COV-2 virus (Severe acute respiratory syndrome coronavirus 2, UniProt P0DTD1).
T2 construct: Mainprotease (Mpro) of SARS-COV-2 Virus; purchased BPS Bioscience 78042-2
The assay is described as follows: Inhibition effect of CA on Mpro enzyme activity (BPS Bioscience Mpro detection kit 78042-2, fluorescence). Particulars: incubated at room temperature for 30 min; Ex/Em=360/460 nm; FIG. 2.

Assay [2] addresses T3, transmembrane serine protease 2 (TMPRSS2) (Homo sapiens, UniProt O15393).
T3 construct: purchased BPS Bioscience 78083
Kind of assay: Inhibition effect of CA on TMPRSS2 enzyme activity (BPS Bioscience TMPRSS2 detection kit 78083, fluorescence). Particulars: incubated at room temperature for 30 min; Ex/Em=383/455 nm; FIG. 1. The procedure:
• 1. Experimental materials include a TMPRSS2 detection kit (78083) of a BPS Bioscience company and CA. • 2. Experimental methods are as follows. In a black 96-well plate, a blank well group, a negative control well group and a sample well group are set, and a detection system is 50 microliters (μL). The blank well group is added with 40 μL of buffer, the negative control well group is added with 30 μL of TMPRSS2 protease and 10 μL of buffer, the sample well group is added with 30 μL of TMPRSS2 protease and 10 μL of CA solution (respectively with concentrations of 0.1 micromole per liter abbreviated as μM, 1 μM, 10 μM, 30 μM, 100 μM, 150 μM, and 200 μM), and the three groups are incubated at the room temperature for 30 min. Each well is added with 10 μL of substrate, after mixing evenly, fluorescence value of each well is immediately detected at excitation/emission (Ex/Em)=383/455 nanometers (nm), every 30 seconds, and a dynamic process within a range of 0-40 min is observed. Two different time points (T1 and T2) are selected within a linear range of the dynamic process to obtain fluorescence values (RFUT1 and RFUT2) corresponding to the time points, a slope of the fluorescence values is calculated, and the slope can be regarded as an enzyme activity of each well. […] A half inhibitory concentration (IC50) is calculated through an Origin 2021 software. • 3.

Numbered stars: 1 amine (or outer) side, 2 acyl side, 3 side chain; on linkers, the order of the positions; unused ones are H or OH. Bridge positions count the residues as written; N and C are the ends. Square brackets hold non-standard residues; d marks the D form. Peptide text beside a SMILES is read from it. * marks the point of attachment. X2 = O=C(/C=C/c1csc([C@H](Cc2ccc(O)cc2)N[*:1])n1)[*:2]; X1 = CC[C@H](C)[C@H](N[*:1])C(=O)C(=O)[*:2]; Benzoyl(4-OH) = O=C(c1ccc(O)cc1)*; Cya = N[C@@H](CS(=O)(=O)O)C(=O)O; Nva = CCC[C@H](N)C(=O)O; Dap = NC[C@H](N)C(=O)O

T3 sequence (O15393 whole entry): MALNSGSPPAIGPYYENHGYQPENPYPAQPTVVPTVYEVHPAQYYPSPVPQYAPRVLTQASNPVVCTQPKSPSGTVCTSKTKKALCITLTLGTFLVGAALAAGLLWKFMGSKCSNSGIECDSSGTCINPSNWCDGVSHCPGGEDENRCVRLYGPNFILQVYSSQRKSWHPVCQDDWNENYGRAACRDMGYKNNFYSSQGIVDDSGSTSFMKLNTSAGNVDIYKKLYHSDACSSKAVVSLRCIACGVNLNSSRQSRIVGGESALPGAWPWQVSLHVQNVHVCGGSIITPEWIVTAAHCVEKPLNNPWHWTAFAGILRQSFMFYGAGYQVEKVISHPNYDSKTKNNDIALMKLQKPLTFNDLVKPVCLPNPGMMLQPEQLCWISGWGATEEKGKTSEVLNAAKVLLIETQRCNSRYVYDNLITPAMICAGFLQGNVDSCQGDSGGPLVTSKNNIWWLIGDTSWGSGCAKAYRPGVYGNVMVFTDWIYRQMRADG

On to `CCC[C@@H]1NC(=O)[C@@H](NC(=O)[C@H](C)NC(=O)CNC(=O)c2ccc(O)cc2)CNC(=O)[C@H](CS(=O)(=O)O)NC(=O)/C=C/c2csc(n2)[C@H](Cc2ccc(O)cc2)NC(=O)C(=O)[C@H]([C@@H](C)CC)NC1=O` [CA, CyclotheonellazoleA] ({Benzoyl(4-OH)}-GA[Dap][Nva][X1][X2][Cya]; lactam 3-C), for which the figures for the IC50 (on neutrophil elastase (NE); in assay [1]; in assay [2]) were 0.001 µM, 159 µM and 19.2 µM, respectively.
